Measured values reported in ChEMBL document CHEMBL1201862, “PubChem BioAssay data set” (2004).
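Cultured in 96-well plates, cells were exposed to test compound for 48 hours across five concentrations. At the GI50, growth is halved.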 Active and inactive are the calls of the source. Cut-off read from the data, not from the text of the source: active = GI50 up to about 1.1 µM and inactive = higher.

What was measured:
Experiment in all cases: NCI anticancer screen, dose series, 48 h
A549 = tested on: A549
ACHN = tested on: ACHN
CAKI-1 = tested on: CAKI-1
Hs-578T = tested on: Hs-578T
M14 = tested on: M14
MDA-MB-231 = tested on: MDA-MB-231
MDA-MB-435 = tested on: MDA-MB-435
MDA-N = tested on: MDA-N
NCI-H460 = tested on: NCI-H460
OVCAR-5 = tested on: OVCAR-5
PC-3 = tested on: PC-3
SF-539 = tested on: SF-539
SNB-75 = tested on: SNB-75
SR = tested on: SR
T47D = tested on: T47D
UACC-62 = tested on: UACC-62
DLD-1 = tested on: DLD-1
DMS-114 = tested on: DMS-114
DMS-273 = tested on: DMS-273
KM-20L2 = tested on: KM-20L2

| SMILES | GI50 (A549) | GI50 (ACHN) | GI50 (CAKI-1) | GI50 (Hs-578T) | GI50 (M14) | GI50 (MDA-MB-231) | GI50 (MDA-MB-435) | GI50 (MDA-N) | GI50 (NCI-H460) | GI50 (OVCAR-5) | GI50 (PC-3) | GI50 (SF-539) | GI50 (SNB-75) | GI50 (SR) | GI50 (T47D) | GI50 (UACC-62) | GI50 (DLD-1) | GI50 (DMS-114) | GI50 (DMS-273) | GI50 (KM-20L2) |
| --- | --- | --- | --- | --- | --- | --- | --- | --- | --- | --- | --- | --- | --- | --- | --- | --- | --- | --- | --- | --- |
| COc1cccc(N2C(=O)C3c4[nH]c5ccc(C)cc5c4C4CCC(C(C)(C)C)CC4C3C2=O)c1 (configuration not stated) | 3.38 µM (inactive) | > 10 µM (inactive) | 9.84 µM (inactive) | 3.19 µM (inactive) | 8 µM (inactive) | 5.48 µM (inactive) | > 10 µM (inactive) | > 10 µM (inactive) | 2.21 µM (inactive) | 3.3 µM (inactive) | 4.43 µM (inactive) | 2.86 µM (inactive) | 2.51 µM (inactive) | 2 µM (inactive) | 7.28 µM (inactive) | > 10 µM (inactive) |  |  |  |  |
| Cc1c2c(cc3c1[nH]c1ccccc13)C(c1ccc(F)cc1)=NCC2 | 1.48 µM (inactive) |  | 0.796 µM (active) |  |  |  |  |  | 0.815 µM (active) | 1.74 µM (inactive) |  | 1.13 µM (inactive) | 1.24 µM (inactive) |  |  | 0.935 µM (active) | 0.851 µM (active) | 0.746 µM (active) | 0.63 µM (active) | 1.11 µM (active) |
| CCCC[C@H]1[C@@H](OCOc2ccccc2)COC(=O)N1[C@H](C)c1ccccc1 | 8.79 µM (inactive) | 18.2 µM (inactive) | 13.5 µM (inactive) | 20.5 µM (inactive) | 12.6 µM (inactive) | 13.3 µM (inactive) | 13.3 µM (inactive) | 11.9 µM (inactive) | 12.6 µM (inactive) | 17.3 µM (inactive) | 6.1 µM (inactive) |  | 10.8 µM (inactive) | 8.49 µM (inactive) | 11.3 µM (inactive) | 10.3 µM (inactive) |  |  |  |  |
| Cc1ccccc1OCC(COC(=O)Nc1ccccc1)OC(=O)Nc1ccccc1 (configuration not stated) | 32.7 µM (inactive) | > 100 µM (inactive) | 26.5 µM (inactive) |  | 28.1 µM (inactive) |  |  |  | 20.2 µM (inactive) | > 100 µM (inactive) |  | 4.15 µM (inactive) | 7.1 µM (inactive) | 12.1 µM (inactive) |  | 23.3 µM (inactive) | 28.8 µM (inactive) | 42.6 µM (inactive) | 32.1 µM (inactive) | 52.2 µM (inactive) |
| Cc1cccc(N2C(=O)C3c4[nH]c5ccc(C)cc5c4C4CCC(C(C)(C)C)CC4C3C2=O)c1 (configuration not stated) | 15.8 µM (inactive) |  | 31.6 µM (inactive) |  | 20.2 µM (inactive) | 18.8 µM (inactive) | 40.9 µM (inactive) |  | 13.3 µM (inactive) | 32.7 µM (inactive) | 13.7 µM (inactive) |  |  |  | 14.3 µM (inactive) | 23.3 µM (inactive) |  |  |  |  |
| Cc1[nH]c(=O)[nH]c(=O)c1C(=O)N(CCO)Cc1ccccc1 |  | > 100 µM (inactive) |  | 14.2 µM (inactive) | > 100 µM (inactive) | > 100 µM (inactive) | > 100 µM (inactive) | > 100 µM (inactive) | > 100 µM (inactive) | > 100 µM (inactive) | 24.6 µM (inactive) | > 100 µM (inactive) |  | > 100 µM (inactive) | > 100 µM (inactive) | > 100 µM (inactive) |  |  |  |  |
| CCOC(=O)C(O)(NC(=O)c1ccc(F)cc1)C(F)(F)F (configuration not stated) | > 100 µM (inactive) | > 100 µM (inactive) | > 100 µM (inactive) | > 100 µM (inactive) | > 100 µM (inactive) | 59.8 µM (inactive) | > 100 µM (inactive) | > 100 µM (inactive) |  | > 100 µM (inactive) | > 100 µM (inactive) | > 100 µM (inactive) | > 100 µM (inactive) | > 100 µM (inactive) | > 100 µM (inactive) | > 100 µM (inactive) |  |  |  |  |
| O=C(O)C1CCCCN1C(=O)c1ccccc1 (configuration not stated) | > 100 µM (inactive) | > 100 µM (inactive) |  |  | > 100 µM (inactive) |  |  |  | > 100 µM (inactive) | > 100 µM (inactive) |  | > 100 µM (inactive) | > 100 µM (inactive) | > 100 µM (inactive) |  | > 100 µM (inactive) | > 100 µM (inactive) | > 100 µM (inactive) | > 100 µM (inactive) | > 100 µM (inactive) |
